This data set is described as follows: Plasma pharmacokinetics of COMPOUND I in Phase I and II studies. It counts as in vivo, patients.

Consider `CN1CCN(c2ccc3nc(-c4c(N)c5c(F)cccc5[nH]c4=O)[nH]c3c2)CC1` [COMPOUND I, 4-amino-5-fluoro-3-[6-(4-methylpiperazin-1-yl)-1H-benzimidazol-2-yl]-1H-quinolin-2-one], for which, for the setting “500 mg/day on a 5 days on/2 days off dosing schedule”, the “inter-subject coefficient of variation (CV %) for AUC” value is reported as “around 50%”. Besides, the plasma pharmacokinetic entry (all doses tested from 25 to 600 mg, continuous daily dosing regimen) is reported as “time dependent”. Under “doses of 400 mg/day and above, continuous daily dosing regimen”, the “exposure of COMPOUND I with dose” value is “prolonged over-proportional exposure”.

These data come from US20140221389A1, “USE OF 4-AMINO-5-FLUORO-3-[6-(4-METHYLPIPERAZIN-1-YL)-1H-BENZIMIDAZOL-2-YL]-1H-QUINOLIN-2-ONE IN THE TREATMENT OF CANCER IN MODERATE HEPATIC IMPAIRED PATIENTS” (Novartis AG, priority 2011, published 2014).
